Results as given in US20180002288A1, “USE OF PICOLINAMIDES AS FUNGICIDES” (DOW AGROSCIENCES LLC, priority 2014, published 2018).
Read-outs that look alike come from different tables or passages of the source.

Key:
Zymoseptoria tritici = test: Leaf Blotch of Wheat fungicidal activity (SEPTTR); assay type: in vivo; conditions: for pest or weed control at 121.5 g/ha: Low Volume Cereal Activity at 121.5 g/Ha; for pest or weed control at 100 ppm: wheat, high volume
Description: (§1) All fungicides were evaluated using the aforementioned method for their activity vs. all target diseases, unless stated otherwise. Wheat leaf blotch and brown rust activity were also evaluated using track spray applications, in which case the fungicides were formulated as EC formulations, containing 0.1% Trycol 5941 in the spray solutions. Wheat plants (variety Yuma) were grown from seed in a greenhouse in 50% mineral soil/50% soil-less Metro mix until the first leaf was fully emerged, with 7-10 seedlings per pot. These plants were inoculated with an aqueous spore suspension of Zymoseptoria tritici either prior to or after fungicide treatments. After inoculation the plants were kept in 100% relative humidity (one day in a dark dew chamber followed by two to three days in a lighted dew chamber at 20° C.) to permit spores to germinate and infect the leaf. The plants were then transferred to a greenhouse set at 20° C. for disease to develop. When disease symptoms were fully expressed on the 1st leaves of untreated plants, infection levels were assessed on a scale of 0 to 100 percent disease severity. Percent disease control was calculated using the ratio of disease severity on treated plants relative to untreated plants.

Puccinia triticina = test: Wheat Brown Rust fungicidal activity (PUCCRT); assay type: in vivo; conditions: for pest or weed control at 121.5 g/ha: Low Volume Cereal Activity at 121.5 g/Ha; for pest or weed control at 100 ppm: wheat, high volume
Description: as §1, with “plants. Wheat plants (variety Yuma) were grown from seed in a greenhouse in 50% mineral soil/50% soil-less Metro mix until the first leaf was fully emerged, with 7-10 seedlings per pot. These plants were inoculated with an aqueous spore suspension of Puccinia triticina either prior to or after fungicide treatments. […] The plants were then transferred to a greenhouse set at 24° C. for disease to develop. Fungicide formulation, application and disease assessment followed the procedures as described in the Example A.” for “plants.”

[1] = 24 h, 1 Day Protectant, read-out: SEPTTR 1DP (Wheat Leaf Blotch, 1 Day Protectant)
[2] = 72 h, 3 Day Curative, read-out: SEPTTR 3DC (Wheat Leaf Blotch, 3 Day Curative)
[3] = 24 h, 1 Day Protectant, read-out: PUCCRT 1DP (Wheat Brown Rust, 1 Day Protectant)
[4] = 72 h, 3 Day Curative, read-out: PUCCRT 3DC (Wheat Brown Rust, 3 Day Curative)
[5] = 24 h, 1 Day Protectant, read-out: SEPTTR 1DP % Control rating
[6] = 72 h, 3 Day Curative, read-out: SEPTTR 3DC % Control rating
[7] = 24 h, 1 Day Protectant, read-out: PUCCRT 1DP % Control rating
[8] = 72 h, 3 Day Curative, read-out: PUCCRT 3DC % Control rating

SMILES	pest or weed control at 121.5 g/ha (Zymoseptoria tritici; [1]) [%]	pest or weed control at 121.5 g/ha (Zymoseptoria tritici; [2]) [%]	pest or weed control at 121.5 g/ha (Puccinia triticina; [3]) [%]	pest or weed control at 121.5 g/ha (Puccinia triticina; [4]) [%]	pest or weed control at 100 ppm (Zymoseptoria tritici; [5]) [%]	pest or weed control at 100 ppm (Zymoseptoria tritici; [6]) [%]	pest or weed control at 100 ppm (Puccinia triticina; [7]) [%]	pest or weed control at 100 ppm (Puccinia triticina; [8]) [%]
COc1ccnc(C(=O)N[C@@H](C)C(=O)O[C@@H](C)[C@H](Oc2ccc(Cl)cc2Cl)c2ccccc2)c1OCOC(C)=O [Example 199]	> 80	> 80	> 80	< 80				
COc1ccnc(C(=O)N[C@@H](C)C(=O)O[C@@H](C)[C@H](Oc2ccccc2)c2cccc3ccccc23)c1O [Example 165]					> 80	> 80	> 80	> 80
COc1ccnc(C(=O)N[C@@H](C)C(=O)O[C@@H](C)[C@H](Oc2cccc(F)c2)c2cccc(-c3ccccc3)c2)c1OC(C)=O [Example 223]	> 80	> 80	> 80	< 80				
COc1ccnc(C(=O)N[C@@H](C)C(=O)O[C@@H](C)[C@H](OCC2CC2)c2cccc(-c3ccccc3)c2)c1OC(C)=O [Example 222]	> 80	> 80	> 80	> 80				
COc1ccnc(C(=O)N[C@@H](C)C(=O)O[C@@H](C)[C@H](Oc2ccccc2)c2ccc(F)cc2OCC(F)F)c1O [Example 176]					> 80	> 80	> 80	> 80
COc1ccnc(C(=O)N[C@@H](C)C(=O)O[C@@H](C)[C@H](Oc2ccc(F)cc2)c2ccc(C)cc2)c1OCOC(C)=O [Example 253]	> 80	> 80	> 80	> 80				
COc1cc(F)ccc1[C@@H](OCC1CC1)[C@H](C)OC(=O)[C@H](C)NC(=O)c1nccc(OC)c1O [Example 289]					> 80	> 80	> 80	> 80
COc1ccnc(C(=O)N[C@@H](C)C(=O)O[C@@H](C)[C@@H](Oc2ccccc2)c2cccs2)c1OC(C)=O [Example 210]	< 80	< 80	< 80	< 80				
COc1ccnc(C(=O)N[C@@H](C)C(=O)O[C@@H](C)[C@@H](Oc2ccccc2)c2ccccc2)c1O [Example 135]					> 80	> 80	> 80	< 0
COc1ccnc(C(=O)N[C@@H](C)C(=O)O[C@@H](C)[C@H](Oc2ccc(C)cc2Cl)c2ccc(F)cc2)c1OCOC(C)=O [Example 245]	> 80	> 80	> 80	< 80				
COc1ccnc(C(=O)N[C@@H](C)C(=O)O[C@@H](C)[C@@H](Oc2ccc(Cl)cc2Cl)c2ccccc2)c1O [Example 134]					> 80	< 80	> 80	> 80
COc1ccnc(C(=O)N[C@@H](C)C(=O)O[C@@H](C)[C@@H](Oc2ccc(Cl)cc2Cl)c2ccccc2)c1OC(C)=O [Example 214]	> 80	> 80	> 80	< 80				
COc1ccnc(C(=O)N[C@@H](C)C(=O)O[C@@H](C)[C@H](Oc2ccccc2)c2ccccc2)c1O [Example 114]					> 80	> 80	> 80	> 80
COc1ccnc(C(=O)N[C@@H](C)C(=O)O[C@@H](C)[C@H](Oc2ccc(C)cc2)c2ccccc2)c1O [Example 151]					> 80	< 80	> 80	> 80
COc1ccnc(C(=O)N[C@@H](C)C(=O)O[C@@H](C)[C@H](Oc2ccccc2)c2ccc(F)cc2)c1O [Example 148]					< 80	> 80	> 80	< 80
COc1ccnc(C(=O)N[C@@H](C)C(=O)O[C@@H](C)[C@H](Oc2ccc(C)cc2)c2ccccc2)c1OC(C)=O [Example 246]	> 80	> 80	> 80	> 80				
COc1ccnc(C(=O)N[C@@H](C)C(=O)O[C@@H](C)[C@H](Oc2cc(F)cc(Cl)c2)c2ccccc2)c1O [Example 122]					> 80	> 80	> 80	> 80
COc1cc(F)ccc1[C@@H](OC(=O)C1CC1)[C@H](C)OC(=O)[C@H](C)NC(=O)c1nccc(OC)c1O [Example 291]					< 0	> 80	< 80	< 80
COc1ccnc(C(=O)N[C@@H](C)C(=O)O[C@@H](C)[C@H](Oc2ccccc2)c2ccc(C)cc2)c1O [Example 154]					> 80	> 80	> 80	> 80
COc1ccnc(C(=O)N[C@@H](C)C(=O)O[C@@H](C)[C@@H](Oc2ccccc2)c2ccccc2)c1OC(C)=O [Example 217]	> 80	> 80	> 80	< 80				
COc1ccnc(C(=O)N[C@H](C(=O)O[C@@H](C)[C@H](Oc2ccc(C(F)(F)F)cc2)c2ccccc2)C(C)C)c1OCOC(C)=O [Example 197]	> 80	< 0	> 80	< 80				
COc1ccnc(C(=O)N[C@@H](C)C(=O)O[C@@H](C)[C@H](Oc2ccc(C)cc2Cl)c2ccccc2)c1O [Example 149]					> 80	> 80	> 80	> 80
COc1ccnc(C(=O)N[C@@H](C)C(=O)O[C@@H](C)C(Oc2ccccc2)c2nccs2)c1OC(C)=O (stereo partly shown) [Example 212]	< 0	< 80	< 80	> 80				
CC[C@H](NC(=O)c1nccc(OC)c1OC(C)=O)C(=O)O[C@@H](C)[C@H](Oc1cc(F)cc(Cl)c1)c1ccccc1 [Example 209]	> 80	> 80	> 80	< 80				
COc1ccnc(C(=O)N[C@@H](C)C(=O)O[C@@H](C)[C@H](Oc2ccccc2)c2ccc(-c3ccccc3)cc2)c1OCOC(C)=O [Example 239]	> 80	> 80	> 80	< 80				
COc1ccnc(C(=O)N[C@@H](C)C(=O)O[C@@H](C)[C@H](Oc2ccccc2)c2ccc(C)cc2F)c1O [Example 164]					> 80	> 80	> 80	> 80
COc1ccnc(C(=O)N[C@@H](C)C(=O)O[C@@H](C)[C@H](Oc2ccccc2)c2ccc(F)cc2Oc2ccccc2)c1O [Example 178]					> 80	> 80	> 80	< 80
COc1ccnc(C(=O)N[C@@H](C)C(=O)O[C@@H](C)[C@H](Oc2ccccc2)c2nccs2)c1O [Example 132]					< 80	< 0	> 80	< 80
